Where no end group is shown, it is not given here.
Assays:
[1] = target: T1, chymotrypsin (Bos taurus, UniProt P00766); type: in vitro ADME, mammalian
T1 construct: purchased Thermo Fisher Scientific
Procedure: A solution of peptide/protease (40:1 molar ratio) was made in phosphate-buffered saline (PBS; pH 7.1, Gibco, NY) and incubated at 37° C. for 1 hour. As controls, peptides without proteases were also incubated in the same manner. Then, aliquots of 10 μL were transferred to a 96-well polystyrene microplate and mixed with the exponential-phase MRSA USA300 culture as performed in the antibacterial activity assays above.

[2] = system: S. aureus USA300 LAC; experiment: Scanning electron microscopy; type: cell-based, Staphylococcus aureus; conditions: 2×MIC, 30 minutes
Procedure: The exponential-phase S. aureus USA300 LAC was treated with a 2×MIC of LL-37mini for 30 minutes. Samples were washed three times with 1×PBS and fixed with 2% paraformaldehyde and 2% glutaraldehyde in 0.1 M PBS. Next, the samples were washed with Sorensen's buffer and postfixed in 1% osmium tetroxide in water for 30 minutes. All samples were then washed in Sorensen's buffer and dehydrated through a graded ethanol series (50, 70, 90, 95, and 100% with ×3 changes). Subsequently, samples were placed in […] 100% for 10 minutes with three changes and left in HMDS in open dishes in the fume hood overnight to allow the HMDS to evaporate. The following day, the samples were mounted on 25 mm aluminum SEM stubs with carbon adhesive tabs. Silver paste was placed around the edges of the samples. Samples were sputter coated with 50 nm of gold/palladium in a Hummer VI sputter coater (Anatech Ltd., Battle Creek, MI) and examined in an FEI Quanta 200 SEM at the UNMC Electron Microscopy Core Facility.

## RRWWRWWR-NH2 [W543]
[1]
  activity after protease incubation: started to lose activity
[2]
  cell morphology by SEM: cell damages were evident

— patent US20250101062A1, “ANTIMICROBIAL PEPTIDES” (Board of Regents of the University of Nebraska, priority 2023, published 2025)
